Experiments:
[1] = Pharmacokinetics of noribogaine in healthy volunteers, ascending single oral dose (plasma); conditions: mean, n = 6; for CL/F: fasted, plasma
[2] = Treatment emergent adverse events in opioid-dependent patients
[3] = Pupillometry (pupillary miosis) in healthy volunteers; format: in vivo, human; conditions: 3-60 mg, p>0.9
Protocol: (§1) Pulse oximetry and capnography data were collected continuously using a GE Carescape B650 monitoring system from 2 hours prior to dosing and until six hours after dosing, and thereafter at 12, 24, 48 and 72 hours post-dosing. […] Pupillary miosis was assessed by pupillometry.
Summary statistics (means, standard deviations, and coefficients of variation) were determined for each dose group for safety laboratory test data, ECG and pharmacokinetic parameters, and pharmacodynamic variables. Categorical variables were analysed using counts and percentages. Dose-proportionality of AUC and Cmax was assessed using linear regression. The effect of dose on pharmacodynamic parameter values over time was assessed using two-factor analysis of variance (ANOVA). Pairwise comparisons (with Tukey-Kramer adjustment) between each dose group to the placebo were conducted at each time point using the least squares estimates obtained from the ANOVA, using SAS Proc Mixed (SAS ver 6.0).

[4] = Efficacy in opioid-dependent patients: time to resumption of OST and withdrawal scales (COWS, SOWS, OOWS); format: in vivo, human
Protocol: The efficacy of noribogaine in humans was evaluated in opioid-dependent participants in a randomized, placebo-controlled, double-blind trial. […] See U.S. application Ser. No. 14/214,157, filed Mar. 14, 2014 and Ser. No. 14/346,655, filed Mar. 21, 2014, which are incorporated herein by reference in their entireties.
Three cohorts of nine (9) subjects (6 administered noribogaine and 3 administered placebo in each cohort) were evaluated for tolerability, pharmacokinetics, and efficacy. Cohort 1 received a single dose of 60 mg noribogaine or placebo. Cohort 2 received a single dose of 120 mg noribogaine or placebo. Cohort 3 received a single dose of 180 mg noribogaine or placebo. […] Headaches were frequent in the placebo and 60 mg noribogaine treatment groups, but were attenuated in the 120 mg and 180 mg dose groups.
Patients were evaluated based on the Clinical Opiate Withdrawal Scale (COWS), Subjective Opiate Withdrawal Scale (SOWS), and Objective Opiate Withdrawal Scale (OOWS) scoring systems over the period of time between administration of noribogaine (or placebo) until resumption of OST. These scales are outlined in Guidelines for the Psychosocially Assisted Pharmacological Treatment of Opioid Dependence, World Health Organization, Geneva (2009), Annex 10, which is incorporated herein by reference in its entirety. The scales measure the intensity of withdrawal symptoms, based on clinical, subjective, and objective indicia.

[5] = Safety and tolerability of noribogaine in healthy humans; format: in vivo, human
Protocol: as §1
(§2) Safety and tolerability of noribogaine were tested in the group of volunteers from Example 1. […] Safety evaluations included clinical monitoring, recording of adverse events (AEs), safety laboratory tests, vital signs, ECG telemetry from −2 h to 6 h after dosing, and 12-lead electrocardiograms (ECGs) up to 216 hours post-dosing.

[6] = Pharmacokinetics in opioid-dependent patients, Phase IB study, single dose; conditions: human, serum; for half-life / Vd/F: opioid-dependent patients
[7] = Cold pressor test in healthy volunteers; format: in vivo, human
Protocol: Analgesic effect was assessed based on duration of hand immersion in ice water and on visual analog scale (VAS) pain scores upon hand removal from the water bath.
as §2

[8] = metabolite in plasma after single oral 30 mg noribogaine
[9] = metabolite in plasma after single oral 60 mg noribogaine
[10] = 60 mg, mean ± SD, Cohort 1 (60 mg)
[11] = 120 mg, range, Cohort 2 (120 mg)
[12] = 180 mg, range, Cohort 3 (180 mg)

CC[C@H]1C[C@@H]2C[C@H]3c4[nH]c5ccc(OC6OC(C(=O)O)C(O)C(O)C6O)cc5c4CCN(C2)[C@@H]13 (stereo partly shown) [noribogaine glucuronide]
AUC0-216 [1, 8]: 25.7 ng·h/mL
AUC0-∞ [1, 8]: 25.8 ng·h/mL
Cmax [1, 8]: 1.8 ng/mL
Tmax [1, 8]: 3.0 h
t1/2 [1, 8]: 20.6 h
AUC0-216 [1, 9]: 65.0 ng·h/mL
AUC0-∞ [1, 9]: 67.1 ng·h/mL
Cmax [1, 9]: 4.1 ng/mL
Tmax [1, 9]: 3.8 h
t1/2 [1, 9]: 23.1 h

CC[C@H]1CC2C[C@H]3c4[nH]c5ccc(O)cc5c4CCN(C2)C13 [noribogaine]
headaches ([2]; 60 mg treatment group): frequent
headaches ([2]; 120 mg and 180 mg dose groups): attenuated
pupil diameter, each dose group versus placebo (ANOVA, baseline adjusted) [3]: no statistically significant differences
withdrawal symptoms (COWS, OOWS, SOWS), first six hours after dosing ([4]; 120 mg): fewer withdrawal symptoms than the other patients
time to resumption of OST, compared with untreated patients ([4]; 180 mg, also longer than 60 mg group): > 7 h
withdrawal symptoms (COWS, OOWS, SOWS), noribogaine versus placebo ([4]; 60, 120, 180 mg): Patients administered placebo generally experienced more withdrawal symptoms than patients who were administered noribogaine
adverse events reported ([5]; 3 mg dose group, by two subjects): five
adverse events reported ([5]; 10 mg dose group, single subject): one
adverse events reported ([5]; 30 mg dose group, single subject): one
intensity of adverse events ([5]; all dose groups, all resolved prior to study completion): mild-moderate
AUC ([6]; 60 mg): 1120 to 2550 ng·h/mL
AUC(0-t) ([6]; 60 mg): 1090 to 2530 ng·h/mL
Cmax ([6]; 60 mg): 41.3 to 113 ng/mL
Tmax ([6]; 60 mg): 2.5 to 5 h
half-life [6, 10]: 29.3 ± 7.28 h
half-life ([6]; 60 mg, range, Cohort 1 (60 mg)): 18.3 to 37.3 h
Vd/F [6, 10]: 1440 ± 854 L
Vd/F ([6]; 60 mg, range, Cohort 1 (60 mg)): 620 to 2770 L
AUC ([6]; 120 mg): 1600 to 5770 ng·h/mL
AUC(0-t) ([6]; 120 mg): 1560 to 5640 ng·h/mL
Cmax ([6]; 120 mg): 139 to 230 ng/mL
Tmax ([6]; 120 mg): 0.98 to 4.02 h
half-life [6, 11]: 21.9 to 48.3 h
Vd/F [6, 11]: 824 to 5240 L
AUC ([6]; 180 mg): 3730 to 12300 ng·h/mL
AUC(0-t) ([6]; 180 mg): 3720 to 10400 ng·h/mL
Cmax ([6]; 180 mg): 205 to 338 ng/mL
Tmax ([6]; 180 mg): 3 to 8 h
half-life [6, 12]: 19.3 to 34.9 h
Vd/F [6, 12]: 581 to 1610 L
CL/F ([1]; single oral 3 mg): 41.4 L/h
CL/F ([1]; single oral 10 mg): 42.3 L/h
CL/F ([1]; single oral 30 mg): 46.9 L/h
CL/F ([1]; single oral 60 mg): 34.0 L/h
duration of hand immersion, each dose group versus placebo (ANOVA) ([7]; ice water, p>0.9): no statistically significant differences
VAS pain scores, each dose group versus placebo (ANOVA) ([7]; upon hand removal, p=0.17): no statistically significant differences

From patent US20150258104A1, “USE OF N[…] THE TREATMENT OF PAIN” (DemeRX, Inc., priority 2014, published 2015)
